According to US9469650B2, “Melampomagnolide B derivatives” (BOARD OF TRUSTEES OF THE UNIVERSITY OF ARKANSAS, priority 2013, dated 2016):

Experiments:
HCC-2998 = assay: panel of 60 human tumor cell lines, growth inhibition (Colon Cancer); conditions: HCC-2998
HCT-116 = assay: as above; conditions: HCT-116
UO-31 = assay: panel of 60 human tumor cell lines, growth inhibition (Renal Cancer); conditions: UO-31
MOLT-4 = assay: panel of 60 human tumor cell lines, growth inhibition (Leukemia); conditions: MOLT-4
TK-10 = assay: panel of 60 human tumor cell lines, growth inhibition (Renal Cancer); conditions: TK-10
SNB-19 = assay: panel of 60 human tumor cell lines, growth inhibition (CNS Cancer); conditions: SNB-19
NCI/ADR-RES = assay: panel of 60 human tumor cell lines, growth inhibition (Ovarian Cancer)
A498 = assay: panel of 60 human tumor cell lines, growth inhibition (Renal Cancer); conditions: A498
HS 578T = assay: panel of 60 human tumor cell lines, growth inhibition (Breast Cancer); conditions: for Percent Growth: HS 57BT
SR = assay: panel of 60 human tumor cell lines, growth inhibition (Leukemia)

C=C1C(=O)O[C@H]2[C@H]1CC/C(COC(=O)N1CCN(C)CC1)=C\CC[C@@]1(C)O[C@@H]21 [JVM 2-44]
GI50 (HCC-2998): 17.5 µM | TGI (HCC-2998): 3.55E−5 | Mean Optical Densities (HCC-2998; Log10 Concentration −4.0): 0.178 | Percent Growth (HCC-2998; Log10 Concentration −4.0): −73% | Mean Optical Densities (HCC-2998; Log10 Concentration −5.0): 1.871 | Percent Growth (HCC-2998; Log10 Concentration −5.0): 90% | Mean Optical Densities (HCC-2998; Log10 Concentration −6.0): 2.049 | Percent Growth (HCC-2998; Log10 Concentration −6.0): 103% | Mean Optical Densities (HCC-2998; Log10 Concentration −7.0): 1.999 | Percent Growth (HCC-2998; Log10 Concentration −7.0): 99% | Mean Optical Densities (HCC-2998; Log10 Concentration −8.0): 1.968 | Percent Growth (HCC-2998; Log10 Concentration −8.0): 97% | GI50 (HCT-116): 3.79 µM | TGI (HCT-116): 1.43E−5 | Mean Optical Densities (HCT-116; Log10 Concentration −4.0): 0.061 | Percent Growth (HCT-116; Log10 Concentration −4.0): −80% | Mean Optical Densities (HCT-116; Log10 Concentration −5.0): 0.598 | Percent Growth (HCT-116; Log10 Concentration −5.0): 15% | Mean Optical Densities (HCT-116; Log10 Concentration −6.0): 2.231 | Percent Growth (HCT-116; Log10 Concentration −6.0): 98% | Mean Optical Densities (HCT-116; Log10 Concentration −7.0): 2.250 | Percent Growth (HCT-116; Log10 Concentration −7.0): 99% | Mean Optical Densities (HCT-116; Log10 Concentration −8.0): 2.298 | Percent Growth (HCT-116; Log10 Concentration −8.0): 102% | GI50 (UO-31): 3.08 µM | TGI (UO-31): 1.54E−5 | Mean Optical Densities (UO-31; Log10 Concentration −4.0): 0.127 | Percent Growth (UO-31; Log10 Concentration −4.0): −83% | Mean Optical Densities (UO-31; Log10 Concentration −5.0): 0.983 | Percent Growth (UO-31; Log10 Concentration −5.0): 19% | Mean Optical Densities (UO-31; Log10 Concentration −6.0): 1.744 | Percent Growth (UO-31; Log10 Concentration −6.0): 80% | Mean Optical Densities (UO-31; Log10 Concentration −7.0): 1.737 | Percent Growth (UO-31; Log10 Concentration −7.0): 79% | Mean Optical Densities (UO-31; Log10 Concentration −8.0): 1.731 | Percent Growth (UO-31; Log10 Concentration −8.0): 79% | GI50 (MOLT-4): 5.49 µM | TGI (MOLT-4): 3.43E−5 | Mean Optical Densities (MOLT-4; Log10 Concentration −4.0): 0.453 | Percent Growth (MOLT-4; Log10 Concentration −4.0): −30% | Mean Optical Densities (MOLT-4; Log10 Concentration −5.0): 1.062 | Percent Growth (MOLT-4; Log10 Concentration −5.0): 35% | Mean Optical Densities (MOLT-4; Log10 Concentration −6.0): 1.734 | Percent Growth (MOLT-4; Log10 Concentration −6.0): 92% | Mean Optical Densities (MOLT-4; Log10 Concentration −7.0): 1.794 | Percent Growth (MOLT-4; Log10 Concentration −7.0): 98% | Mean Optical Densities (MOLT-4; Log10 Concentration −8.0): 1.889 | Percent Growth (MOLT-4; Log10 Concentration −8.0): 106% | GI50 (TK-10): 3.91 µM | TGI (TK-10): 1.53E−5 | Mean Optical Densities (TK-10; Log10 Concentration −4.0): 0.069 | Percent Growth (TK-10; Log10 Concentration −4.0): −94% | Mean Optical Densities (TK-10; Log10 Concentration −5.0): 1.338 | Percent Growth (TK-10; Log10 Concentration −5.0): 21% | Mean Optical Densities (TK-10; Log10 Concentration −6.0): 2.166 | Percent Growth (TK-10; Log10 Concentration −6.0): 92% | Mean Optical Densities (TK-10; Log10 Concentration −7.0): 2.198 | Percent Growth (TK-10; Log10 Concentration −7.0): 95% | Mean Optical Densities (TK-10; Log10 Concentration −8.0): 2.185 | Percent Growth (TK-10; Log10 Concentration −8.0): 94% | GI50 (SNB-19): 19.6 µM | TGI (SNB-19): 6.35E−5 | Mean Optical Densities (SNB-19; Log10 Concentration −4.0): 0.513 | Percent Growth (SNB-19; Log10 Concentration −4.0): −19% | Mean Optical Densities (SNB-19; Log10 Concentration −5.0): 1.860 | Percent Growth (SNB-19; Log10 Concentration −5.0): 79% | Mean Optical Densities (SNB-19; Log10 Concentration −6.0): 2.030 | Percent Growth (SNB-19; Log10 Concentration −6.0): 90% | Mean Optical Densities (SNB-19; Log10 Concentration −7.0): 2.075 | Percent Growth (SNB-19; Log10 Concentration −7.0): 93% | Mean Optical Densities (SNB-19; Log10 Concentration −8.0): 2.149 | Percent Growth (SNB-19; Log10 Concentration −8.0): 97% | GI50 (NCI/ADR-RES): 24.6 µM | TGI (NCI/ADR-RES): >1.00E−4 | Mean Optical Densities (NCI/ADR-RES; Log10 Concentration −4.0): 0.606 | Percent Growth (NCI/ADR-RES; Log10 Concentration −4.0): 1% | Mean Optical Densities (NCI/ADR-RES; Log10 Concentration −5.0): 1.819 | Percent Growth (NCI/ADR-RES; Log10 Concentration −5.0): 82% | Mean Optical Densities (NCI/ADR-RES; Log10 Concentration −6.0): 2.094 | Percent Growth (NCI/ADR-RES; Log10 Concentration −6.0): 100% | Mean Optical Densities (NCI/ADR-RES; Log10 Concentration −7.0): 2.049 | Percent Growth (NCI/ADR-RES; Log10 Concentration −7.0): 97% | Mean Optical Densities (NCI/ADR-RES; Log10 Concentration −8.0): 2.060 | Percent Growth (NCI/ADR-RES; Log10 Concentration −8.0): 98% | GI50 (A498): 10.2 µM | TGI (A498): 3.47E−5 | Mean Optical Densities (A498; Log10 Concentration −4.0): 0.967 | Percent Growth (A498; Log10 Concentration −4.0): −43% | Mean Optical Densities (A498; Log10 Concentration −5.0): 2.150 | Percent Growth (A498; Log10 Concentration −5.0): 51% | Mean Optical Densities (A498; Log10 Concentration −6.0): 2.296 | Percent Growth (A498; Log10 Concentration −6.0): 67% | Mean Optical Densities (A498; Log10 Concentration −7.0): 2.301 | Percent Growth (A498; Log10 Concentration −7.0): 68% | Mean Optical Densities (A498; Log10 Concentration −8.0): 2.357 | Percent Growth (A498; Log10 Concentration −8.0): 74% | GI50 (HS 578T): 16.7 µM | TGI (HS 578T): >1.00E−4 | Percent Growth (HS 578T; Log10 Concentration −4.0): 5% | Percent Growth (HS 578T; Log10 Concentration −5.0): 63% | Percent Growth (HS 578T; Log10 Concentration −6.0): 90% | Percent Growth (HS 578T; Log10 Concentration −7.0): 86% | Percent Growth (HS 578T; Log10 Concentration −8.0): 90% | Mean Optical Densities (HS 578T; Log10 Concentration −4.0): 1.235 | Mean Optical Densities (HS 578T; Log10 Concentration −5.0): 1.827 | Mean Optical Densities (HS 578T; Log10 Concentration −6.0): 2.096 | Mean Optical Densities (HS 578T; Log10 Concentration −7.0): 2.057 | Mean Optical Densities (HS 578T; Log10 Concentration −8.0): 2.099 | GI50 (SR): 2.81 µM | TGI (SR): 3.33E−5 | Mean Optical Densities (SR; Log10 Concentration −4.0): 0.332 | Percent Growth (SR; Log10 Concentration −4.0): −14% | Mean Optical Densities (SR; Log10 Concentration −5.0): 0.534 | Percent Growth (SR; Log10 Concentration −5.0): 16%
